From patent publication EP0918774B9, “ANDROGEN RECEPTOR MODULATOR COMPOUNDS AND METHODS” (LIGAND PHARMACEUTICALS INCORPORATED, priority 1996, dated 1997)

Assays:
GR = target: T1, GR (Homo sapiens, UniProt P04150); experiment: cell-based
T1 sequence (P04150 1-777): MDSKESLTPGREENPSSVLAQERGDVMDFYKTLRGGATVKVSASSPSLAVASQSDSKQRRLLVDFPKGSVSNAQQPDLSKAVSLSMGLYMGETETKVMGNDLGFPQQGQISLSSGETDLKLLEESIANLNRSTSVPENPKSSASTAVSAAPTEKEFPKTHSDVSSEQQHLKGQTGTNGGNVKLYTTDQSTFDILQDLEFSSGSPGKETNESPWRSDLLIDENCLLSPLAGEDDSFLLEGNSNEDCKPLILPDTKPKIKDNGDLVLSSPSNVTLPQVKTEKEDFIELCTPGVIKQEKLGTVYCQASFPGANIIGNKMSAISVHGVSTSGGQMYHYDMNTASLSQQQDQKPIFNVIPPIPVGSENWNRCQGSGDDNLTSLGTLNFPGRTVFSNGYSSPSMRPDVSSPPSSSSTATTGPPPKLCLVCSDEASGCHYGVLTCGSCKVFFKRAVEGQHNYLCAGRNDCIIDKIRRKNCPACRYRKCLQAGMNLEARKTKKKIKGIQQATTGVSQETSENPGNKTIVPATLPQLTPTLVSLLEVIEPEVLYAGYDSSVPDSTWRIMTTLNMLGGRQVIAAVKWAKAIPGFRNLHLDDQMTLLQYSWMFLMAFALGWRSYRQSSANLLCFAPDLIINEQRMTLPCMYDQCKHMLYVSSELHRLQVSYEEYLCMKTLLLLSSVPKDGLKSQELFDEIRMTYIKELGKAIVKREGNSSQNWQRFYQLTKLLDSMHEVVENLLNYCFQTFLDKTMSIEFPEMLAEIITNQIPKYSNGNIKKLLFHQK
Method: (§1) CV-1 cells (African green monkey kidney fibroblasts) were cultured in the presence of Dulbecco's Modified Eagle Medium (DMEM) supplemented with 10% charcoal resinstripped fetal bovine serum then transferred to 96-well microtiter plates one day prior to transfection.
(§2) Three to four replicates were used for each sample.
(§3) After 40 hours, the cells were washed with PBS, lysed with a Triton X-100-based buffer and assayed for LUC and β-Gal activities using a luminometer or spectrophotometer, respectively. For each replicate, the normalized response (NR) was calculated as: LUC response/β-Gal rate where β-Gal rate = β-Gal•1x10^-5/β-Gal incubation time.

MR = target: T2, MR (Homo sapiens, UniProt P08235); experiment: Co-transfection assay, MR antagonist mode; type: cell-based
T2 construct: expressed in transfected cells; host or cells: CV-1 cells
T2 sequence (P08235 1-984): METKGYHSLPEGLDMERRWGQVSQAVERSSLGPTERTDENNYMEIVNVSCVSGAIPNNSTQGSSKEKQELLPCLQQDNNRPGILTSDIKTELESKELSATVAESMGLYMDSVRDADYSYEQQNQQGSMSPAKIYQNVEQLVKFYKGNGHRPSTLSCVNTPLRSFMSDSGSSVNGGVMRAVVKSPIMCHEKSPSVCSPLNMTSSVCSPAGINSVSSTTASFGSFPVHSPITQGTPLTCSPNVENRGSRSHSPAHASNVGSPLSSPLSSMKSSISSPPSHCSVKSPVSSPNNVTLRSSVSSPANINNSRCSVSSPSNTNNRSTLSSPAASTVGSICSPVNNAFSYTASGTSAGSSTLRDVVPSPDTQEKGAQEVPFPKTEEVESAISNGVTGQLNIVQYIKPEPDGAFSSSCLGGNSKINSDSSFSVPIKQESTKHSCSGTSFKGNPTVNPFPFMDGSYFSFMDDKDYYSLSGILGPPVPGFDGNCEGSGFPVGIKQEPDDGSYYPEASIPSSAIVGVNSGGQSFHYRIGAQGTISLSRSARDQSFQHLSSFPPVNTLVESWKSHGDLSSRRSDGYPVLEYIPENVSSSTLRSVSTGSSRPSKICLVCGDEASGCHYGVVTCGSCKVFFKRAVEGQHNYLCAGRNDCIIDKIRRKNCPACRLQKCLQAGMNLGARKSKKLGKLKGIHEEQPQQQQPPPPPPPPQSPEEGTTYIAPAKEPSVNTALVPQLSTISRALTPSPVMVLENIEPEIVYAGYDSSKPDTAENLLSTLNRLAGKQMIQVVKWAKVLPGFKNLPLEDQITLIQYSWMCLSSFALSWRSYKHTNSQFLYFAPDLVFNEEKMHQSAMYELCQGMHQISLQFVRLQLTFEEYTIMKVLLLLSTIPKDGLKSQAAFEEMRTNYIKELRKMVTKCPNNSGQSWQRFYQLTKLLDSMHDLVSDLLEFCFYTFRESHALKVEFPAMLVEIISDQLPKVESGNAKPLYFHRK
Method: as §1, §2, §3

PR = target: T3, PR (Homo sapiens, UniProt P06401); experiment: cell-based
T3 sequence (P06401 1-933): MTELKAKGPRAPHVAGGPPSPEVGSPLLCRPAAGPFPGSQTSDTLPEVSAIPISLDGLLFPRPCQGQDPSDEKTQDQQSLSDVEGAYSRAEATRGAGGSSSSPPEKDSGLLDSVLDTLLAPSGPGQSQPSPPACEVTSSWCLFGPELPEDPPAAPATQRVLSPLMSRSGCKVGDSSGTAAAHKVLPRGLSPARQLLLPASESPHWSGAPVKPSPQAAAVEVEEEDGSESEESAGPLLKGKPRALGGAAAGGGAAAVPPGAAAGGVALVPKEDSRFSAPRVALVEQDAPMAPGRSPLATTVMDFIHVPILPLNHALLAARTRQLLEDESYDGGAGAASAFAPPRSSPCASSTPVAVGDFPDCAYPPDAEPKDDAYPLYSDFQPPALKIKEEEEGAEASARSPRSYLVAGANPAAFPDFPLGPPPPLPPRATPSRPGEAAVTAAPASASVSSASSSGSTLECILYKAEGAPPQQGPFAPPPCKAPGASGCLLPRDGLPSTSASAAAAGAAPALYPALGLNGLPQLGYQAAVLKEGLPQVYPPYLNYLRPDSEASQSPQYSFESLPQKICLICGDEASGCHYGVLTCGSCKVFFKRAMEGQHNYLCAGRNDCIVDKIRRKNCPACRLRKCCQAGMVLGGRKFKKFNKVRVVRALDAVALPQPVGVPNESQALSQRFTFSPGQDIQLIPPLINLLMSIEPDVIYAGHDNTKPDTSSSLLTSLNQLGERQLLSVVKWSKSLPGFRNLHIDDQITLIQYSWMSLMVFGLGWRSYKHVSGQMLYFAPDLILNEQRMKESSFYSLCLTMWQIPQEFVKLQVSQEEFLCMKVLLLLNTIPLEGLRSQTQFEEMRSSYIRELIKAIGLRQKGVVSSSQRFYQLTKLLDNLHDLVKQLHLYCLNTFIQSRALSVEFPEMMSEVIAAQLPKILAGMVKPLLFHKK

Row | Compound | IC50 (GR) [µM] | IC50 (MR) [µM] | IC50 (PR) [µM]
1 | CC12CCCN1c1cc3[nH]c(=O)c(F)c(C(F)(F)F)c3cc1CC2 (racemic) [Compound 102, (R/S)-3-Fluoro-6,7,7a,11-tetrahydro-7a-methyl-4-trifluoromethyl-2-pyridono[5,6-g]pyrrolidino[1,2-a]quinoline] | > 10 | > 10 | –
2 | CC12CCCN1c1cc3nc(O)cc(C(F)(F)F)c3cc1CC2 (racemic) [Compound 101, (R/S)-6,7,7a,11-Tetrahydro-7a-methyl-4-trifluoromethyl-2-pyridono[5,6-g]pyrrolidino[1,2-a]quinoline] | > 10 | > 10 | > 10
